The record followed here is patent US10925914B2, “Method for alleviating depression using a health functional food containing Vaccinium bracteatum Thunb fruit extract” (priority 2016, dated 2021).

The test system of data set [1] is SH-SY5Y cells (neuroblastoma, human dopaminergic neuronal cells). The following applies: 24 h. The procedure:
SH-SY5Y cells (neuroblastoma, human dopaminergic neuronal cells) were incubated in MEM medium containing 1% antimycotics/antibiotics and 10% FBS. The cells were seeded at a density of 10^5 cell/ […] in a 96-well plate, and then incubated for 24 hours.
The cell line used was SH-SY5Y cells, and the cells were treated with the Vaccinium bracteatum Thunb. fruit hot-water extract at concentrations of 1, 3, 10, 30, and 100 μg/ml to investigate cytotoxicity.
(§1) After 24 hours, cell viability was determined using an MTT assay.
as §1

The subject of a further data set is corticosterone (COR). The experiment in a line: Plasma corticosterone (COR) by ELISA after 6-day administration. The data set is classed as in vivo, mice. The following applies: escitalopram oxalate 10 mg/kg, 6 days; no significance. As to the method: The effects on concentration changes of the neurotransmitter NE associated with depression and the stress hormone COR in normal conditions were measured by isolating plasma from the mice after 6 day-administration of each drug and using the Abnova ELISA kit according to the instruction of the manufacturer.
(In general: ELISA stands for enzyme-linked immunosorbent assay.)

The subject of a further data set is ICR male mice. The experiment in a line: Forced swimming test after 6-day oral administration. The following applies: comparison group, 6 days. The data set is classed as in vivo. As to the method: The ICR male mice were orally administered with the Vaccinium bracteatum Thunb. fruit extract of the present invention. For a comparative group, escitalopram oxalate used an anti-depressant was orally administered. These were administered for 6 days according to the test. Before drug administration, for the pre-test (pre-swim), tap water around 25° C. was poured into a cylindrical water tank (20 cm in diameter, 40 cm in height) from the bottom of the cylinder to 15 cm, and then the mice were put into the water tank, forced to swim for 15 minutes, taken out from the water, wiped with a dry towel, and then returned to breeding boxes. After 6 days of drug administration, the present test (post-swim) was carried out. […] The recorded image was analyzed excluding the first minute therefrom, and animal behavior during the last 5 minutes was classified into 3 types: immobility behavior (the mouse only floated near the surface of the water, slightly moving while only a part of the upper body including the face was above water), swimming behavior (the mouse moved horizontally around the cylinder moving the front and hind legs in a swimming motion), and climbing behavior (the mouse scratched the wall, somewhat violently kicking the front extremities to move remain above water). The duration of each behavior type was measured.

Structures can show the parent of a compound that is named as a salt.

As to `OO` [H2O2, hydrogen peroxide], the cell viability in data set [1] (10 μM) is reported as 50-60%. On to `C[C@]12C[C@H](O)[C@H]3[C@@H](CCC4=CC(=O)CC[C@@]43C)[C@@H]1CC[C@@H]2C(=O)CO` [corticosterone], for which the cytotoxicity in data set [1] (1 mM) is reported as 50-60%.

With `CN(C)CCC[C@@]1(c2ccc(F)cc2)OCc2cc(C#N)ccc21` [escitalopram oxalate], the “level of the stress hormone corticosterone compared with the control group” value with corticosterone (COR) is reported as “decrease tendency”. This compound registered a swimming time in the data set on ICR male mice (control 51.82±3.38 seconds) of 128.16 ± 6.65 s. This compound showed an immobility time with ICR male mice (last 5 min of 6 min swim, control 245.48±4.05 seconds) of 169.65 ± 7.15 s.
